Measured values from paper PMC10269878 (Microbiology Spectrum, 2023).

Legend:
[1] = test system: melioidosis; conditions: in vivo; cited from earlier work
[2] = in vivo; conditions: mouse, po, 100 mg/kg
[3] = mouse, in vivo

For `C[C@H]1c2cccc(O)c2C(=O)C2=C(O)[C@]3(O)C(=O)C(C(N)=O)=C(O)[C@@H](N(C)C)[C@@H]3[C@@H](O)[C@@H]21` [Doxycycline, doxycycline monohydrate], the “Efficacy alone to clear melioidosis” value [1] is given as “ineffective alone to clear melioidosis”, the AUC(0-t) [2] is given as 12700 ng·h/mL and the Tmax [2] is given as 1.24 h. The half-life [2] was 154 min, the k el [2] was 7.5e-05 s⁻¹ and the “Doxycycline Absorption (ka)” value [3] was 1.68 h⁻¹.
